Patent publication US7153865B2, “N-type calcium channel antagonists for the treatment of pain” (Astrazeneca AB, priority 2001, dated 2006)

What was measured:
NK-1 receptor = details: phenylbenzoquinone-induced writhing and formalin test; compared with morphine; cited from earlier work
[1] = test system: formalin-induced nocifensive behaviours; experiment: Formalin test; assay type: in vivo, rats; details: dose 60, time 40, route IP (units of dose and time not given)
N-type calcium channel = N-type calcium channel (Homo sapiens, UniProt Q00975); experiment: N-channel FLIPR (Fluorescent Laser Imaging Plate Reader) assay; assay type: cell-based; details: differentiated IMR32 cells, 80 mM K+ stimulus; unit inferred
Chain of N-type calcium channel (Q00975 whole entry): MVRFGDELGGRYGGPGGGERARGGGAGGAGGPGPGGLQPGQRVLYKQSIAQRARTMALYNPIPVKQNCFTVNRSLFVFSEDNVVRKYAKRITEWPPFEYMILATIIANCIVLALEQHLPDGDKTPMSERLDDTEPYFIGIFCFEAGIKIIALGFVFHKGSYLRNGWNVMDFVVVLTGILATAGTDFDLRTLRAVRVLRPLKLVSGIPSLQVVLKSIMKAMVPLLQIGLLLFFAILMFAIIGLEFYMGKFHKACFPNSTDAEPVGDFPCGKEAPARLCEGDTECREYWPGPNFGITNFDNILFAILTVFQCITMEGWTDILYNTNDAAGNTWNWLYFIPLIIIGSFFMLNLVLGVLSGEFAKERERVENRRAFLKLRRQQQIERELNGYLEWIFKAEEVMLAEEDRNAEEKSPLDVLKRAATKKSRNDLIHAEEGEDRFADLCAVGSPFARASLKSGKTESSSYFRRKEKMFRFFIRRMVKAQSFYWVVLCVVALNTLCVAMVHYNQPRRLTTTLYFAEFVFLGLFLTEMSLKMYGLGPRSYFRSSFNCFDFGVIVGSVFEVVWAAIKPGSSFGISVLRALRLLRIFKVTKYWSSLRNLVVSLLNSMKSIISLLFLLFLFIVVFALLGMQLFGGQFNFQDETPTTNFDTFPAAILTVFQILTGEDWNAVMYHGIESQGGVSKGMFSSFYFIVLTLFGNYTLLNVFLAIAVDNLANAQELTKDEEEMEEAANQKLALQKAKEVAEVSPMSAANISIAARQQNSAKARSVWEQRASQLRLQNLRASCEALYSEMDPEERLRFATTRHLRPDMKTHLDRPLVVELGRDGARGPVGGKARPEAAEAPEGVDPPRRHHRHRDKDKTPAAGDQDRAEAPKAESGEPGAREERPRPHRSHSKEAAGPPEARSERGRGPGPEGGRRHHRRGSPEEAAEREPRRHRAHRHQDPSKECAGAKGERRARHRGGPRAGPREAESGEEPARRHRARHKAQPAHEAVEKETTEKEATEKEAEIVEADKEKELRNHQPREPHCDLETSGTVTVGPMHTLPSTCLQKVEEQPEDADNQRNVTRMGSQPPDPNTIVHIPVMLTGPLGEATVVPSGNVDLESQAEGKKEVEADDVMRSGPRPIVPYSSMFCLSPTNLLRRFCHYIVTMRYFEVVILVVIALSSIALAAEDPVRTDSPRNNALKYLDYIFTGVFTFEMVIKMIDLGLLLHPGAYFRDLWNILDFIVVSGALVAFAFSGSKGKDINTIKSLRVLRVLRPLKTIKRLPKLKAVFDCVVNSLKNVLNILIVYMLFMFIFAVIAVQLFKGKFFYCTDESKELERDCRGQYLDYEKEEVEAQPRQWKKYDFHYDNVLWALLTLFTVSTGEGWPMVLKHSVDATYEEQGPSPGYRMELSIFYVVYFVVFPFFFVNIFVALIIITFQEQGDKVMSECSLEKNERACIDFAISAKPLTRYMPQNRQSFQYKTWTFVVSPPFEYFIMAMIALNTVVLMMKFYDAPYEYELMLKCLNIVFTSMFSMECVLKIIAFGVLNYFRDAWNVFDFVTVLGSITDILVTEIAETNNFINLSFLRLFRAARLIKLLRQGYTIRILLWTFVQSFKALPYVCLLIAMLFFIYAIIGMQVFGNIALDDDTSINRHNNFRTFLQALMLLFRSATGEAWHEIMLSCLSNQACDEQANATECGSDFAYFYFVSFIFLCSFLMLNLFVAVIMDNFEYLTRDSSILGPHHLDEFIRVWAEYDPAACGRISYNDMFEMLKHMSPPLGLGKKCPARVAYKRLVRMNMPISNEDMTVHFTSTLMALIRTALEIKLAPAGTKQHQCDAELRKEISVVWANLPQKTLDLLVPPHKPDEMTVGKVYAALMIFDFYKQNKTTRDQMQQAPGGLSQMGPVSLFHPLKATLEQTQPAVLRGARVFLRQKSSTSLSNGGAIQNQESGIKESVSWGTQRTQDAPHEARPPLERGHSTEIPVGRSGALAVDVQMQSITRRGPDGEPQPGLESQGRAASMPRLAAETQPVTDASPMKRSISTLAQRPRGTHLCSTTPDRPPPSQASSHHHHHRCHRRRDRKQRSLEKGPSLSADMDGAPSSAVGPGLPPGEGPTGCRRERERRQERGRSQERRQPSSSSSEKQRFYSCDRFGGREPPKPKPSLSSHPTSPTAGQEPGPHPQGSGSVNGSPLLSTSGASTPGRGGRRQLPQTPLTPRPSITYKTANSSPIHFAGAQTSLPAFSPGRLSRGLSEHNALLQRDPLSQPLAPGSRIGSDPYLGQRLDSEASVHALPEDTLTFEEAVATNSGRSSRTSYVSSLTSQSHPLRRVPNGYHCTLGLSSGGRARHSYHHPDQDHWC
Chain of N-type calcium channel (P54284 whole entry partner): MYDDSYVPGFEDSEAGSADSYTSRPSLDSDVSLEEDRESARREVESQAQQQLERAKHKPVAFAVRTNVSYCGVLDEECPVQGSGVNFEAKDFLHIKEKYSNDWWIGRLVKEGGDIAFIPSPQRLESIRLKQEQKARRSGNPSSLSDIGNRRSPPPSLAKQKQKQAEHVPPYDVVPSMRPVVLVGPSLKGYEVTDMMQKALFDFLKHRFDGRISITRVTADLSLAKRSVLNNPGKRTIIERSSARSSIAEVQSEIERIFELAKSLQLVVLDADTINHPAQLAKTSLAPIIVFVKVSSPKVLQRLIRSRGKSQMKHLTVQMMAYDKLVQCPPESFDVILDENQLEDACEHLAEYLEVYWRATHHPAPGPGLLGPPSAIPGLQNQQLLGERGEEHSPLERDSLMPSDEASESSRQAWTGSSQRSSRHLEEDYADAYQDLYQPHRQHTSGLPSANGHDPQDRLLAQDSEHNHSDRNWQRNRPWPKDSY
Chain of N-type calcium channel (P54289 25-956 partner limits assumed): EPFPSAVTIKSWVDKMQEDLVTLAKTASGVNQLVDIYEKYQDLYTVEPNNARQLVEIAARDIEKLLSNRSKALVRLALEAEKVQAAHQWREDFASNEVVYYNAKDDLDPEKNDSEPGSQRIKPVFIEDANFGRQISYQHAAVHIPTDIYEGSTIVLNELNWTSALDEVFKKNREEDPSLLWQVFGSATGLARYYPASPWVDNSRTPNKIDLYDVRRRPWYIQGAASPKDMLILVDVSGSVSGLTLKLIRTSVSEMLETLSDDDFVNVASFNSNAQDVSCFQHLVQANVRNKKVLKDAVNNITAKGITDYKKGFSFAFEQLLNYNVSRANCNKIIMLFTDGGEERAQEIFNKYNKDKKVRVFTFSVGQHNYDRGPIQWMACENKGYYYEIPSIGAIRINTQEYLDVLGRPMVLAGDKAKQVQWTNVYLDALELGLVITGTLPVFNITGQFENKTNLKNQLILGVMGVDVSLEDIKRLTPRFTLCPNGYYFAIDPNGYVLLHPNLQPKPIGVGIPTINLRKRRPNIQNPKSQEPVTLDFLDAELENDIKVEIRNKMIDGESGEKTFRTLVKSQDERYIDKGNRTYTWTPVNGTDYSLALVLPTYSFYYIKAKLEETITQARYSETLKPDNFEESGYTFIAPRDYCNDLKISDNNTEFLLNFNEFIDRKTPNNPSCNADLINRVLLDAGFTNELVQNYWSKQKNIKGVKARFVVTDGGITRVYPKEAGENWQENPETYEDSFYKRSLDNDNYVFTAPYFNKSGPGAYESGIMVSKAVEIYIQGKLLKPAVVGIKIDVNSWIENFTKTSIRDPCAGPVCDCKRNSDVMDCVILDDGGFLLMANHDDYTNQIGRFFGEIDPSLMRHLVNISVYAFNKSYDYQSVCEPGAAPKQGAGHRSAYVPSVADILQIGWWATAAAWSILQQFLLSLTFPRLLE
Chain of N-type calcium channel (P54289 957-1103 partner limits assumed): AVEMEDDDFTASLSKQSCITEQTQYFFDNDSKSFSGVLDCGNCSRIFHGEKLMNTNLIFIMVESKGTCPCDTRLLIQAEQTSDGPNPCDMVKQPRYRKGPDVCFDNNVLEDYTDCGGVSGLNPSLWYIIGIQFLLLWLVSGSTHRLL

IC50 (N-type calcium channel) | SMILES | further results
 | COc1ccccc1CC(=N)N1C[C@@H]2C(=O)CCC(c3ccccc3)(c3ccccc3)[C@@H]2C1 [RP 67,580] | analgesia in chemo-nociception tests (NK-1 receptor): produced analgesia with potency comparable to that of morphine
 | Clc1ccc(Nc2cc(Nc3ccccc3N3CCOCC3)nc3ccccc23)cc1Cl [Example 2, N4-(3,4-Dichloro-phenyl)-N2-(2-morpholin-4-yl-phenyl)-quinoline-2,4-diamine] | Formalin test % inhibition (dose, time route) [1]: 42 (60, 40, IP) %
9.82 µM | Nc1ccccc1Nc1cc(Nc2ccc(Cl)c(Cl)c2)c2ccccc2n1 [Example 27, N2-(2-amino-phenyl)-N4-(3,4-dichloro-phenyl)-quinoline-2,4-diamine] | 
4.01 µM | Nc1ccccc1Nc1cc(Nc2ccc(Cl)c(Cl)c2)c2cccc(F)c2n1 [Example 14, N2-(2-Amino-phenyl)-N4-(3,4-dichloro-phenyl)-8-fluoro-quinoline-2,4-diamine] | 
